Measurements published in patent publication US20030109503A1, “Pharmaceutical formulations comprising clavulanic acid alone or in combination with other beta-lactam antibiotics” (SmithKline Beecham p.l.c., priority 1995, published 2003).
Like-named read-outs stand apart in the source and are kept apart here.

What was measured:
B. fragilis = assay: MIC in agar (Wilkins-Chalgren), serial dilution, alone or with constant clavulanic acid; assay type: cell-based, Bacteroides fragilis
Experimental: (§1) Determinations of the minimum inhibitory concentration (MIC) were performed in agar using serial dilutions of the test compounds alone or in the presence of constant concentrations of clavulanic acid (2 or 4 μg/ml). The agar used was Mueller Hinton (BBL) supplemented with 5% lysed horse blood in the case of H. influenzae and M. catarrhalis, except for B. fragilis where Wilkins-Chalgren agar (Oxoid) was used. A multipoint inoculator was used to drop 1 μl of undiluted culture of S. aureus, 10-fold dilutions of B. fragilis, H. influenzae and M. catarrhalis and 100-fold dilutions of E. coli and K. pneumoniae onto the surface of the agar, to give an inoculum of approximately 10^4 to 10^5 cfu/spot.

[1] = tested on: β-lactamase producing strains of S. aureus; assay: MIC in agar, serial dilution, alone or with constant clavulanic acid; assay type: cell-based
Experimental: as §1

[2] = tested on: β-lactamase producing strains of H. influenzae; assay: as above; assay type: cell-based
Experimental: as §1

[3] = tested on: plasmid mediated β-lactamase producing strains of K. pneumoniae; assay: as above; assay type: cell-based, Klebsiella pneumoniae
Experimental: as §1

[4] = tested on: β-lactamase producing strains of M. catarrhalis; assay: as above; assay type: cell-based, Moraxella catarrhalis
Experimental: as §1

[5] = tested on: plasmid mediated β-lactamase producing strains of E. coli; assay: as above; assay type: cell-based, Escherichia coli
Experimental: as §1

[6] = clavulanic acid at 2 or 4 μg/ml
[7] = Gmean MIC values reduced considerably

`N[C@@H](C(=O)N[C@@H]1C(=O)N2C(C(=O)O)=C(Cl)CS[C@H]12)c1ccccc1` [cefaclor] gave an MIC range (B. fragilis; B.fragilis (19 strains), CA2/CA4 = constant 2 or 4 μg/ml clavulanic acid) of 64 to 512 µg/mL, an MIC90 (B. fragilis; Bacteroides fragilis, B.fragilis (19 strains), CA2/CA4 = constant 2 or 4 μg/ml clavulanic acid) of 128 µg/mL and an MIC (B. fragilis; Bacteroides fragilis, B.fragilis (19 strains), CA2/CA4 = constant 2 or 4 μg/ml clavulanic acid, read-out: Gmean (geometric mean MIC)) of 151 µg/mL. The MIC (B. fragilis; Bacteroides fragilis, B.fragilis (19 strains), CA2/CA4 = constant 2 or 4 μg/ml clavulanic acid, read-out: MIC75) was 4 µg/mL, the MIC range ([1]; S.aureus P+ (10 strains), CA2/CA4 = constant 2 or 4 μg/ml clavulanic acid) was 1 to 256 µg/mL and the MIC90 ([1]; Staphylococcus aureus, S.aureus P+ (10 strains), CA2/CA4 = constant 2 or 4 μg/ml clavulanic acid) was 64 µg/mL. It also gave an MIC ([1]; Staphylococcus aureus, S.aureus P+ (10 strains), CA2/CA4 = constant 2 or 4 μg/ml clavulanic acid, read-out: Gmean (geometric mean MIC)) of 12.4 µg/mL, an MIC ([1]; Staphylococcus aureus, S.aureus P+ (10 strains), CA2/CA4 = constant 2 or 4 μg/ml clavulanic acid, read-out: MIC75) of 32 µg/mL and an MIC ([1]; Staphylococcus aureus, in the presence of 2 μg/ml clavulanic acid, read-out: geometric mean (Gmean) MIC of cefaclor) of 1.13 µg/mL. For the same compound, the MIC ([1]; Staphylococcus aureus, in the presence of 4 μg/ml clavulanic acid, read-out: geometric mean (Gmean) MIC of cefaclor) was 0.73 µg/mL, the MIC range ([2]; H.influenzae (15 strains), CA2/CA4 = constant 2 or 4 μg/ml clavulanic acid) was 2 to 16 µg/mL and the MIC90 ([2]; Haemophilus influenzae, H.influenzae (15 strains), CA2/CA4 = constant 2 or 4 μg/ml clavulanic acid) was 16 µg/mL. The MIC ([2]; Haemophilus influenzae, H.influenzae (15 strains), CA2/CA4 = constant 2 or 4 μg/ml clavulanic acid, read-out: Gmean (geometric mean MIC)) was 7.64 µg/mL, the MIC ([2]; Haemophilus influenzae, H.influenzae (15 strains), CA2/CA4 = constant 2 or 4 μg/ml clavulanic acid, read-out: MIC75) was 16 µg/mL and the MIC90 ([3]; Klebsiella pneumoniae) was 256 µg/mL. For the same compound, the MIC ([3]; Klebsiella pneumoniae, read-out: Gmean (geometric mean MIC)) was 17.7 µg/mL, the MIC ([3]; Klebsiella pneumoniae, read-out: MIC75) was 256 µg/mL and the MIC range ([4]; M.catarrhalis (14 strains), CA2/CA4 = constant 2 or 4 μg/ml clavulanic acid) was 1 to 8 µg/mL. It also gave an MIC90 ([4]; Moraxella catarrhalis, M.catarrhalis (14 strains), CA2/CA4 = constant 2 or 4 μg/ml clavulanic acid) of 8 µg/mL, an MIC ([4]; Moraxella catarrhalis, M.catarrhalis (14 strains), CA2/CA4 = constant 2 or 4 μg/ml clavulanic acid, read-out: Gmean (geometric mean MIC)) of 4.88 µg/mL and an MIC ([4]; Moraxella catarrhalis, M.catarrhalis (14 strains), CA2/CA4 = constant 2 or 4 μg/ml clavulanic acid, read-out: MIC75) of 8 µg/mL. It also gave an MIC range ([5]; E.coli R+ (11 strains), CA2/CA4 = constant 2 or 4 μg/ml clavulanic acid) of 1 to 32 µg/mL, an MIC90 ([5]; Escherichia coli) of 32 µg/mL and an MIC ([5]; Escherichia coli, read-out: Gmean (geometric mean MIC)) of 4.32 µg/mL. It also gave an MIC ([5]; Escherichia coli, read-out: MIC75) of 4 µg/mL.
In the case of `O=C(O)[C@H]1/C(=C/CO)O[C@@H]2CC(=O)N21` [clavulanic acid], the “effect of clavulanic acid on the activity of cefaclor” value (shortened to “effect of clavulanic acid”) (B. fragilis; [6]) is reported as “improved the activity of cefaclor”, the “effect of clavulanic acid” value ([1]; 2 and 4 μg/ml clavulanic acid) is reported as “markedly improved the activity of cefaclor” and the “effect of clavulanic acid” value [2, 6] is reported as “improved the activity of cefaclor”. For the same compound, the “effect of clavulanic acid” value [3, 7] was “improved”, the “effect of clavulanic acid” value [4, 6] was “improved the activity of cefaclor” and the “effect of clavulanic acid” value [5, 7] was “improved”.
